Experimental data: ChEMBL document CHEMBL4610118 (J Med Chem, 2020)
pIC50: −log10 of the molar value.

Target: CDK7/Cyclin H/MNAT1 (Homo sapiens, UniProt P50613)
Sequence (P51946 whole entry): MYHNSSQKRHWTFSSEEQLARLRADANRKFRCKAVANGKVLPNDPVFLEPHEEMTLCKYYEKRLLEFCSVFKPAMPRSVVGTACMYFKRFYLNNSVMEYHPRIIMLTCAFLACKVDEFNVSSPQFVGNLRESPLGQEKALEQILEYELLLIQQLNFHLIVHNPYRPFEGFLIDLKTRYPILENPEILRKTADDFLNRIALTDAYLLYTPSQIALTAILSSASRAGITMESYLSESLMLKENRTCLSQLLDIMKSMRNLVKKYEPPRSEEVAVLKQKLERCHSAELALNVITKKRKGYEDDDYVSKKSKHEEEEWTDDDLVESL
Sequence (P50613 whole entry): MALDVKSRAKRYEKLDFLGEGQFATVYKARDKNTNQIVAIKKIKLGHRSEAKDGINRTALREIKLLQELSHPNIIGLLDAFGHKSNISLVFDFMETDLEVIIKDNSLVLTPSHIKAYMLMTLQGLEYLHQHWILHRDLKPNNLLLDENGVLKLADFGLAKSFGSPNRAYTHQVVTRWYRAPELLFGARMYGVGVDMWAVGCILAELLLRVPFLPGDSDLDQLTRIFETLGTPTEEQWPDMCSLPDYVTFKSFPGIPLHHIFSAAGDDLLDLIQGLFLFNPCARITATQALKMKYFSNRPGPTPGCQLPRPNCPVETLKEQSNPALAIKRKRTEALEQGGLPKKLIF
Sequence (P51948 whole entry, further chain): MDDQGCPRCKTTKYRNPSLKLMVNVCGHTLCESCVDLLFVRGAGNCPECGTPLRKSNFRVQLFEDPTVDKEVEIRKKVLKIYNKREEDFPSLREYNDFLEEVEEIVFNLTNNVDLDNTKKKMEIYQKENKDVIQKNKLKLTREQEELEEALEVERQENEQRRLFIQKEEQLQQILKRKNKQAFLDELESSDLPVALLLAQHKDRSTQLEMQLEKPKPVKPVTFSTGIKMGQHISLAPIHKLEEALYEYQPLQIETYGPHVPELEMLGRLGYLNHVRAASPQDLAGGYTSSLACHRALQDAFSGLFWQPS
Description: Inhibition of recombinant human full-length His-tagged CDK7/Cyclin H/MNAT1 expressed in baculovirus infection system using Cdk7/9tide as substrate measured after 1 hr by Alexa Fluor 647 ADP Tracer-based Adapta assay

| SMILES | pIC50 |
| --- | --- |
| C=CC(=O)Nc1ccc(C(=O)N2CCC[C@@H](Nc3ncc(SCc4ncc(C(C)(C)C)o4)s3)C2)cc1F | 5.26 |
| C=CC(=O)Nc1ccc(C(=O)N2CCC[C@@H](Nc3ncc(SCc4ncc(C(C)(C)C)o4)s3)C2)cc1C(F)(F)F | 5.46 |
| C=CC(=O)Nc1ccc(C(=O)N2CCC[C@@H](Nc3ncc(Cl)c(SCc4ncc(C(C)(C)C)o4)n3)C2)cc1 | 5.29 |
| C=CC(=O)Nc1ccc(C(=O)N2CCC[C@@H](Nc3ncc(SCc4ccncc4)s3)C2)cc1 | < 5.00 |
| C=CC(=O)Nc1ccc(C(=O)N2CCC[C@@H](Nc3ncc([S+]([O-])Cc4ncc(C(C)(C)C)o4)s3)C2)cc1 (stereo not given in full) | < 5.00 |
| C=CC(=O)Nc1ccc(C(=O)N2CCC[C@@H](Nc3ncc(SCc4ncc(C(C)(C)C)o4)s3)C2)nc1 | 5.41 |

Now from value to molecule:

| pIC50 | SMILES |
| --- | --- |
| 6.22 | C=CC(=O)Nc1ccc(C(=O)N2C[C@H](Nc3ncc(SCc4ncc(C(C)(C)C)o4)s3)CC[C@@H]2C)cc1 |
| 5.11 | C=CC(=O)Nc1ccc(C(=O)N2CCC[C@@H](Nc3ncc(SCc4ncc(C(C)(C)C)o4)s3)[C@H]2C)cc1 |
| 5.02 | C=CC(=O)Nc1ccc(C(=O)N2CC(Nc3ncc(SCc4ncc(C(C)(C)C)o4)s3)CC(F)(F)C2)cc1 (stereo not given) |
| < 5.00 | C=CC(=O)Nc1ccc(C(=O)N2CCC[C@@H](Nc3nc(C)c(SCc4ncc(C(C)(C)C)o4)s3)C2)cc1 |
